Test results reported in article PMC9332802, “Structure–Activity Relationship of New Chimeric Analogs of Mastoparan from the Wasp Venom Paravespula lewisii” (International Journal of Molecular Sciences, 2022).
≈ marks a conversion by molar mass, not a printed value. Read-outs that look alike come from different tables or passages of the source. Ends that are not written are not given here.

What was measured:
[1] = tested on: Escherichia coli NCTC 8196; test: microbe, parasite or virus in culture; format: cell-based; conditions: for MIC E. coli: peptide 0.125 to […], no visible growth
Experimental: (§1) Antimicrobial activity of peptides was examined against three reference strains: Staphylococcus aureus NCTC 4163, Escherichia coli NCTC 8196 and Pseudomonas aeruginosae NCTC 6749 dedicated for the determination of antibacterial activity. The bacterial strains were stored in glycerol stock (Sigma-Aldrich, St. Louis, MO, USA) at −80 °C. Before testing, the strains were cultured aerobically in Tryptic Soy Agar (BD DIFCO, Franklin Lakes, NJ, USA) at 37 °C for 20 h. The susceptibility of microorganisms to the peptides was determined by the broth microdilution assay according to the procedures outlined by CLSI [49]. […] In order to prepare the bacterial suspension, an overnight culture of bacteria in Tryptic Soy Broth (BD DIFCO, Franklin Lakes, NJ, USA) was diluted in sterile saline to a final concentration of approximately 10^7 CFU/mL of bacteria. Aliquots (5 µL) of bacterial suspension were added to each peptide solution. The sterility control (containing the tested peptide in broth) and the growth control (containing the reference strain in broth without the tested peptide) were also set up. The plates were incubated at 37 °C under aerobic conditions. The results are expressed as the minimal inhibitory concentration (MIC) of the compounds in question. The MIC was defined as the lowest concentration at which no visible growth of bacteria (no turbidity) was observed. The assay was performed in triplicate.

[2] = tested on: Pseudomonas aeruginosae NCTC 6749; test: microbe, parasite or virus in culture; format: cell-based; conditions: for MIC P. aeruginosae: broth microdilution (CLSI), Mueller–Hinton broth, 37 °C, peptide 0.125 to […], no visible growth, triplicate
Experimental: as §1

[3] = tested on: Staphylococcus aureus NCTC 4163; test: microbe, parasite or virus in culture; format: cell-based; conditions: for MIC: read-out: MIC S. aureus; for MIC S. aureus: peptide 0.125 to […], no visible growth
Experimental: as §1

[4] = Circular dichroism spectroscopy, relative α-helix fraction; format: physicochemical; conditions: CD, peptide 0.15 mg/mL, 25 °C, three scans averaged
Experimental: Circular dichroism spectroscopy was applied to evaluate the conformational changes of peptides induced by membrane-mimetic environments. The secondary structures of MP and some of its MP analogs (Table 4) were determined in water, 50% 2,2,2-trifluoroethanol (TFE) and 0.1 M Tris buffer with the addition of 50 mM SDS. The relative α-helix fraction (fH) values presented in Table 4, calculated from the values of mean residue ellipticity at 222 nm, reflect the ability of peptides to adopt helical structure in the tested environments.
Circular dichroism (CD) spectra of peptides were recorded on a Jasco J-815 spectropolarimeter (Jasco Int. Co., Ltd., Tokyo, Japan). The CD spectra were acquired for peptides in a concentration of 0.15 mg/mL in water, 50% 2,2,2-trifluoroethanol (TFE) or 0.1 M tris(hydroxymethyl)aminomethane (Tris) buffer (pH 7.01) with the addition of 50 mM SDS (sodium dodecylsulphate) in 0.1 cm path length cuvettes. Measurements were taken at 25 °C in a spectral range of 193–260 nm with a bandwidth of 1 nm and response of 1 s. The spectra were averaged after three scans. Ellipticity was measured in mdeg units and converted to mean residue ellipticity (Θ). The relative helix content (fH) was calculated from the mean residue ellipticity values at 222 nm using the method proposed by Rohl and Baldwin [50] and described previously. Helical wheel projections (Figure 3) were made with HeliQuest https://heliquest.ipmc.cnrs.fr/ (accessed on 1 June 2022).

[5] = same MIC expressed as molar concentration, broth microdilution (CLSI), Mueller–Hinton broth, 37 °C, triplicate
[6] = broth microdilution (CLSI), Mueller–Hinton broth, 37 °C, triplicate

CNC(C)C1CCC(N)C(OC2C(N)CC(N)C(OC3OCC(C)(O)C(NC)C3O)C2O)O1 (stereo not drawn) [Gentamicin, gentamicin, reference compound]
MIC ([1]; Escherichia coli, NCTC8196): 1 µg/mL
MIC ([1]; Escherichia coli, NCTC8196, same MIC expressed as molar concentration, broth microdilution (CLSI), Mueller–Hinton broth, 37 °C, triplicate): 2.1 µM
MIC ([2]; Pseudomonas, NCTC6749, read-out: MIC P. aeruginosae): 0.25 µg/mL (≈ 0.523 µM)
MIC ([3]; Staphylococcus aureus, NCTC4163): 0.5 µg/mL
MIC ([3]; Staphylococcus aureus, NCTC4163, same MIC expressed as molar concentration, broth microdilution (CLSI), Mueller–Hinton broth, 37 °C, triplicate): 1.1 µM

CC[C@H](C)[C@H](N)C(=O)N[C@@H](CC(N)=O)C(=O)N[C@@H](CC(C)C)C(=O)N[C@@H](CCCCN)C(=O)N[C@@H](C)C(=O)N[C@@H](CC(C)C)C(=O)N[C@@H](C)C(=O)N[C@@H](C)C(=O)N[C@@H](CC(C)C)C(=O)N[C@@H](C)C(=O)N[C@@H](CCCCN)C(=O)N[C@@H](CCCCN)C(=O)N[C@H](C(=O)N[C@@H](CC(C)C)C(N)=O)[C@@H](C)CC [MP, mastoparan]
MIC [1, 5]: 21.6 µM
MIC P. aeruginosae [2]: 256 µg/mL (≈ 173 µM)
MIC [3, 5]: 5.4 µM

CC[C@H](C)[C@H](NC(=O)[C@H](CCCCN)NC(=O)[C@H](CCCCN)NC(=O)[C@H](C)NC(=O)[C@H](CC(C)C)NC(=O)[C@H](C)NC(=O)[C@H](C)NC(=O)[C@H](CC(C)C)NC(=O)[C@H](C)NC(=O)[C@H](CCCCN)NC(=O)[C@H](CC(C)C)NC(=O)[C@H](CC(N)=O)NC(=O)[C@@H](NC(=O)[C@H](CCCCN)NC(=O)CNC(=O)[C@H](CC(C)C)NC(=O)[C@H](CC(C)C)NC(=O)[C@H](Cc1ccc(O)cc1)NC(=O)CNC(=O)[C@H](C)N)[C@@H](C)CC)C(=O)N[C@@H](CC(C)C)C(N)=O [TP10, transportan 10, reference compound]
MIC P. aeruginosae [2]: 256 µg/mL (≈ 117 µM)

CC[C@H](C)[C@H](NC(=O)[C@H](CCCCN)NC(=O)CNC(=O)[C@H](CC(C)C)NC(=O)[C@H](CC(C)C)NC(=O)[C@H](Cc1ccc(O)cc1)NC(=O)CNC(=O)[C@H](C)N)C(=O)N[C@@H](CC(N)=O)C(=O)N[C@@H](CC(C)C)C(=O)N[C@@H](CCCCN)C(=O)N[C@@H](C)C(=O)N[C@@H](CC(C)C)C(=O)N[C@@H](C)C(=O)N[C@@H](C)C(=O)N[C@@H](CC(C)C)C(=O)N[C@@H](C)C(=O)N[C@@H](CCCCN)C(=O)N[C@@H](CCCCN)C(=O)N[C@H](C(=O)N[C@@H](CC(C)C)C(=O)N[C@@H](Cc1ccc(O)cc1)C(=O)N[C@@H](CO)C(=O)N1CCC[C@H]1C(=O)N[C@@H](Cc1c[nH]c2ccccc12)C(=O)N[C@H](C(=O)N[C@@H](CC(N)=O)C(=O)N[C@@H](Cc1ccccc1)C(N)=O)[C@@H](C)O)[C@@H](C)CC [TP10-RIP]
MIC E. coli [1, 6]: >256 µg/mL
MIC P. aeruginosae [2]: >256 µg/mL
MIC S. aureus [3, 6]: 128 µg/mL (≈ 41.6 µM)
Relative α-helix fraction (fH), 0.1 M Tris + 50 mM SDS ([4]; 0.1 M Tris buffer pH 7.01 + 50 mM SDS, from mean residue ellipticity at 222 nm): 0.25
Relative α-helix fraction (fH), 50% TFE ([4]; 50% TFE, from mean residue ellipticity at 222 nm (Rohl and Baldwin)): 0.27
Relative α-helix fraction (fH), water ([4]; water, from mean residue ellipticity at 222 nm (Rohl and Baldwin)): 0.08

CC[C@H](C)[C@H](NC(=O)[C@H](CCCCN)NC(=O)[C@H](CCCCN)NC(=O)[C@H](C)NC(=O)[C@H](CC(C)C)NC(=O)[C@H](C)NC(=O)[C@H](C)NC(=O)[C@H](CC(C)C)NC(=O)[C@H](C)NC(=O)[C@H](CCCCN)NC(=O)[C@H](CC(C)C)NC(=O)[C@H](CC(N)=O)NC(=O)[C@@H](NC(=O)[C@H](CCCCN)NC(=O)CNC(=O)[C@H](CC(C)C)NC(=O)[C@H](CC(C)C)NC(=O)[C@H](Cc1ccc(O)cc1)NC(=O)CNC(=O)[C@H](C)NC(=O)[C@H](CO)NC(=O)[C@H](CC(N)=O)NC(=O)[C@H](CC(C)C)NC(=O)[C@@H](NC(=O)[C@H](Cc1c[nH]c2ccccc12)NC(=O)CN)[C@@H](C)O)[C@@H](C)CC)C(=O)N[C@@H](CC(C)C)C(N)=O [TP, transportan, reference compound]
MIC P. aeruginosae [2]: >256 µg/mL

CC[C@H](C)[C@H](NC(=O)[C@H](CCCCN)NC(=O)[C@H](CCCCN)NC(=O)[C@H](C)NC(=O)[C@H](CC(C)C)NC(=O)[C@H](C)NC(=O)[C@H](C)NC(=O)[C@H](CC(C)C)NC(=O)[C@H](C)NC(=O)[C@H](CCCCN)NC(=O)[C@H](CC(C)C)NC(=O)[C@H](CC(N)=O)NC(=O)[C@@H](NC(=O)[C@H](CCCCNC(=O)Cn1cnc2ccccc21)NC(=O)CNC(=O)[C@H](CC(C)C)NC(=O)[C@H](CC(C)C)NC(=O)[C@H](Cc1ccc(O)cc1)NC(=O)CNC(=O)[C@H](C)N)[C@@H](C)CC)C(=O)N[C@@H](CC(C)C)C(N)=O [[Lys^7 (BnzAc)] TP10]
MIC E. coli [1, 6]: >256 µg/mL
MIC P. aeruginosae [2]: >256 µg/mL
MIC S. aureus [3, 6]: 256 µg/mL (≈ 109 µM)

CC[C@H](C)[C@H](NC(=O)[C@H](CCCCN)NC(=O)[C@H](CCCCN)NC(=O)[C@H](C)NC(=O)[C@H](CC(C)C)NC(=O)[C@H](C)NC(=O)[C@H](C)NC(=O)[C@H](CC(C)C)NC(=O)[C@H](C)NC(=O)[C@H](CCCCN)NC(=O)[C@H](CC(C)C)NC(=O)[C@H](CC(N)=O)NC(=O)[C@@H](NC(=O)[C@H](CCCCNC(=O)Cn1c(-c2ccccc2Cl)nc2ccccc21)NC(=O)CNC(=O)[C@H](CC(C)C)NC(=O)[C@H](CC(C)C)NC(=O)[C@H](Cc1ccc(O)cc1)NC(=O)CNC(=O)[C@H](C)N)[C@@H](C)CC)C(=O)N[C@@H](CC(C)C)C(N)=O [[Lys^7 (ClBnzAc)] TP10]
MIC E. coli [1, 6]: >256 µg/mL
MIC P. aeruginosae [2]: >256 µg/mL
MIC S. aureus [3, 6]: >256 µg/mL

CCCCCCCCCc1nc2ccccc2n1CC(=O)NCCCC[C@H](NC(=O)CNC(=O)[C@H](CC(C)C)NC(=O)[C@H](CC(C)C)NC(=O)[C@H](Cc1ccc(O)cc1)NC(=O)CNC(=O)[C@H](C)N)C(=O)N[C@H](C(=O)N[C@@H](CC(N)=O)C(=O)N[C@@H](CC(C)C)C(=O)N[C@@H](CCCCN)C(=O)N[C@@H](C)C(=O)N[C@@H](CC(C)C)C(=O)N[C@@H](C)C(=O)N[C@@H](C)C(=O)N[C@@H](CC(C)C)C(=O)N[C@@H](C)C(=O)N[C@@H](CCCCN)C(=O)N[C@@H](CCCCN)C(=O)N[C@H](C(=O)N[C@@H](CC(C)C)C(N)=O)[C@@H](C)CC)[C@@H](C)CC [[Lys^7 (NBnzAc)] TP10]
MIC E. coli [1, 6]: >256 µg/mL
MIC P. aeruginosae [2]: >256 µg/mL
MIC S. aureus [3, 6]: >256 µg/mL

AGYLLGINLKALAALAKKILYKPITNF-NH2 [[desLys^7] TP10-[Lys^2, Ile^4] RIP]
MIC P. aeruginosae [2]: >256 µg/mL

GWTLNSAGYLLGPINLKALAALAKKIL-NH2 [Galp, galparan, reference compound]
MIC P. aeruginosae [2]: >256 µg/mL

INLKALAALAKKILYKPITNF-NH2 [MP-[Lys^2, Ile^4] RIP]
MIC P. aeruginosae [2]: >256 µg/mL

KALAALAKKIL-NH2 [MP (4–14)]
MIC P. aeruginosae [2]: >256 µg/mL

KALAALAKKILYKPITNF-NH2 [MP (4–14)-[Lys^2, Ile^4] RIP]
MIC P. aeruginosae [2]: >256 µg/mL

KALAALAKKILYSPWTNF-NH2 [MP (4–14)-RIP]
MIC P. aeruginosae [2]: >256 µg/mL

YKPITNF-NH2 [[Lys^2, Ile^4] RIP, reference compound]
MIC P. aeruginosae [2]: >256 µg/mL

YKPITNFINLKALAALAKKIL-NH2 [[Lys^2, Ile^4] RIP-MP]
MIC P. aeruginosae [2]: >256 µg/mL
